Assay results as given in ChEMBL document CHEMBL4725309, “Potent, non-covalent reversible BTK inhibitors with 8-amino-imidazo[1,5-a]pyrazine core featuring 3-position bicyclic ring substitutes” (Bioorg Med Chem Lett, 2020).

Columns and labels:
[1] = molecular target: T1, Tyrosine-protein kinase BTK (Homo sapiens, UniProt Q06187); assay: Inhibition of BTK in human PBMC assessed as reduction in cell surface CD69 expression preincubated for 1 hr followed by stimulation with goat anti-human IgM F(ab')2 for 18 hrs by immunostaining analysis; format: tissue-based
T1 sequence (Q06187 whole entry): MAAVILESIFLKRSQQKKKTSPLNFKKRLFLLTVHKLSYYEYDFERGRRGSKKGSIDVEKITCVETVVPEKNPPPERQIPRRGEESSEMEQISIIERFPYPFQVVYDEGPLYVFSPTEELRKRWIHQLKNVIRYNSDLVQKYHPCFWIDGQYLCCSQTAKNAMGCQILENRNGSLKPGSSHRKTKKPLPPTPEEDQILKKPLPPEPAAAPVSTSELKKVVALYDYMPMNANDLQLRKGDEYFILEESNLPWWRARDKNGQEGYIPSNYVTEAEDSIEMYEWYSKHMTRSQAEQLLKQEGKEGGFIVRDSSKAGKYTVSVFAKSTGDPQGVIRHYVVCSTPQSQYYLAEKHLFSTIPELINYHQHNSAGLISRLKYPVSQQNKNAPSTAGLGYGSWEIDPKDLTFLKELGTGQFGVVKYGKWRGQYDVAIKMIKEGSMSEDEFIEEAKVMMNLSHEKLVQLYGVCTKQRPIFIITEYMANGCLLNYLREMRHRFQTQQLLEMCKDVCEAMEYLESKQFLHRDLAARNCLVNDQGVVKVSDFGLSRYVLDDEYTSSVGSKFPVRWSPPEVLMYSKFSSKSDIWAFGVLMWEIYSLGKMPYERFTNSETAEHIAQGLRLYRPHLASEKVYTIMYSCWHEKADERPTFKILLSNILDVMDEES

[2] = AUC in Wistar Han rat at 2 mg/kg, iv; format: ADME, organism-based; set-up: dose 2 mg/kg; conditions: in vivo
Rattus norvegicus = assay: Antiarthritic activity in Lewis rat model of collagen-induced arthritis assessed as decrease in paw thickness at 15 to 120 mg/kg, po qd and measured for 30 days; format: functional, organism-based; conditions: dose mg/kg 15-120, time 30.0 day
[3] = molecular target: T2, Tyrosine-protein kinase TXK (Homo sapiens, UniProt P42681); assay: Inhibition of TXK (unknown origin)
T2 sequence (P42681 whole entry): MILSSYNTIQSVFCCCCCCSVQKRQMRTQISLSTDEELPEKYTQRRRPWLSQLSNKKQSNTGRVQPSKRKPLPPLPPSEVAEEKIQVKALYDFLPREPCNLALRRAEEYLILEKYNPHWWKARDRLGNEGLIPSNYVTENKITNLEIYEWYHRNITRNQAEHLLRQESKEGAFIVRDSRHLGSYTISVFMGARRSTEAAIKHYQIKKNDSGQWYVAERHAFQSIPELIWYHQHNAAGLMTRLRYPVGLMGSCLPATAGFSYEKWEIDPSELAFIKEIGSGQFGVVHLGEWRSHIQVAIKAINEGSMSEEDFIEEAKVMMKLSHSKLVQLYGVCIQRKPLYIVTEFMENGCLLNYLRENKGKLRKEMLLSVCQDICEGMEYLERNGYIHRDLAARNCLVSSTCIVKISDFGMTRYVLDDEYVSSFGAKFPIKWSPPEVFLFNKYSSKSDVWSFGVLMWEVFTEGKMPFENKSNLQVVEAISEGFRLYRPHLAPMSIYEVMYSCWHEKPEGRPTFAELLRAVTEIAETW

[4] = Clearance in Beagle dog at 1 mg/kg, iv; format: ADME, organism-based, Canis lupus familiaris; conditions: in vivo
[5] = molecular target: Receptor tyrosine-protein kinase erbB-4 (Homo sapiens, UniProt Q15303); assay: Inhibition of ERBB4 (unknown origin)
Receptor tyrosine-protein kinase erbB-4, sequence (Q15303 whole entry): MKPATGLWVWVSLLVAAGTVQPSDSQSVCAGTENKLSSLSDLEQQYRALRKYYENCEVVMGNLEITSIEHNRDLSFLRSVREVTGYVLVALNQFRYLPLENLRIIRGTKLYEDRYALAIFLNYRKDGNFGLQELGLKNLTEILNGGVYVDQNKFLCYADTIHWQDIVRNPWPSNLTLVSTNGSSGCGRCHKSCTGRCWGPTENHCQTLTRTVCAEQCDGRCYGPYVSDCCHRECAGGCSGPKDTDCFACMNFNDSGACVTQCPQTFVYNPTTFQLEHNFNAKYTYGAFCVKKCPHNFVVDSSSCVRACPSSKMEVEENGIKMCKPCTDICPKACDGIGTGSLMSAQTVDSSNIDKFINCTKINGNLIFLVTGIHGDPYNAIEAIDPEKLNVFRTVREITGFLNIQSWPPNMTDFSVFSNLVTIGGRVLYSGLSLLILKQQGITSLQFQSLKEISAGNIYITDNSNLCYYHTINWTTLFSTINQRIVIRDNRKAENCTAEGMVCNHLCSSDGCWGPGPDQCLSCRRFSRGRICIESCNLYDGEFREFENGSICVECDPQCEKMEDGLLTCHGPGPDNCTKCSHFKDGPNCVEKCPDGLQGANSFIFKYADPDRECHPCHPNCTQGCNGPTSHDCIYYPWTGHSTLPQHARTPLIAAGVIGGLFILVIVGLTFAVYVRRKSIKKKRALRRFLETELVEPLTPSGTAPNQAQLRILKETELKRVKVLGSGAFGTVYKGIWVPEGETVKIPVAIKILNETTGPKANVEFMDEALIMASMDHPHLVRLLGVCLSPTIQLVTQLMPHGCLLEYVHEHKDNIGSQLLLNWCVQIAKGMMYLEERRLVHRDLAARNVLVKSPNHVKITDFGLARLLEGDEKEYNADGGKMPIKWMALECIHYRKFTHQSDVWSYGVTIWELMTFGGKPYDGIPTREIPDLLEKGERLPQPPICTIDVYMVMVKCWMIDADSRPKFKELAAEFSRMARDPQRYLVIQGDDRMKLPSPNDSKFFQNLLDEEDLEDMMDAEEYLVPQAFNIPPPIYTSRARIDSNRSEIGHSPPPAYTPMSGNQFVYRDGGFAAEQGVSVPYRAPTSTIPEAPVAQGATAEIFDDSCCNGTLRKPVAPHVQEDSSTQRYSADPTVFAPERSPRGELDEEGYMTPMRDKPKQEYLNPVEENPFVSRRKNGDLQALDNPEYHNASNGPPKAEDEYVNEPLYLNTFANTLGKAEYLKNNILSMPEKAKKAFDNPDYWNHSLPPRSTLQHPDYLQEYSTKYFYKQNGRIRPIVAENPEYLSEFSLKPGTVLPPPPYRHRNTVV

[6] = Tmax in Wistar Han rat at 5 mg/kg, po; format: ADME, organism-based; conditions: in vivo
[7] = Tmax in Beagle dog at 2 mg/kg, po; format: ADME, organism-based, Canis lupus familiaris; conditions: in vivo
[8] = Cmax in Wistar Han rat at 5 mg/kg, po; format: ADME, organism-based; set-up: route oral, dose 5 mg/kg; conditions: in vivo
[9] = molecular target: Tyrosine-protein kinase Fgr (Homo sapiens, UniProt P09769); assay: Inhibition of FGR (unknown origin)
Tyrosine-protein kinase Fgr, sequence (P09769 whole entry): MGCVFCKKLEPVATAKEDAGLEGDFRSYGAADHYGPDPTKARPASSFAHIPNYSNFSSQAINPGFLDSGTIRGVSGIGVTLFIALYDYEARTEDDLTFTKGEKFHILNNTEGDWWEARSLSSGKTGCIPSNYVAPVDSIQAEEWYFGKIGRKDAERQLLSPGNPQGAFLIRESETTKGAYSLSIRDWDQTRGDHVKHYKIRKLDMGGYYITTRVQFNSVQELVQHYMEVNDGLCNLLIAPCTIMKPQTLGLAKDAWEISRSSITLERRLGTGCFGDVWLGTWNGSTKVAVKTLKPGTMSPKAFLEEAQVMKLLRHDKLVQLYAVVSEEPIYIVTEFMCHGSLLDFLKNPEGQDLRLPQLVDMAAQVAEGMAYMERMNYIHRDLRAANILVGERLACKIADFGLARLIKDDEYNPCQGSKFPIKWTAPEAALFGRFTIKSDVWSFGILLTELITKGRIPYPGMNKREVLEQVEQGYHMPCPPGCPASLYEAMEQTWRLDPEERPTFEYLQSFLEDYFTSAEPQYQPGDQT

[10] = Oral bioavailability in Beagle dog at 2 mg/kg; format: ADME, organism-based, Canis lupus familiaris; conditions: in vivo
[11] = molecular target: T3, Cytoplasmic tyrosine-protein kinase BMX (Homo sapiens, UniProt P51813); assay: Inhibition of BMX (unknown origin)
T3 sequence (P51813 whole entry): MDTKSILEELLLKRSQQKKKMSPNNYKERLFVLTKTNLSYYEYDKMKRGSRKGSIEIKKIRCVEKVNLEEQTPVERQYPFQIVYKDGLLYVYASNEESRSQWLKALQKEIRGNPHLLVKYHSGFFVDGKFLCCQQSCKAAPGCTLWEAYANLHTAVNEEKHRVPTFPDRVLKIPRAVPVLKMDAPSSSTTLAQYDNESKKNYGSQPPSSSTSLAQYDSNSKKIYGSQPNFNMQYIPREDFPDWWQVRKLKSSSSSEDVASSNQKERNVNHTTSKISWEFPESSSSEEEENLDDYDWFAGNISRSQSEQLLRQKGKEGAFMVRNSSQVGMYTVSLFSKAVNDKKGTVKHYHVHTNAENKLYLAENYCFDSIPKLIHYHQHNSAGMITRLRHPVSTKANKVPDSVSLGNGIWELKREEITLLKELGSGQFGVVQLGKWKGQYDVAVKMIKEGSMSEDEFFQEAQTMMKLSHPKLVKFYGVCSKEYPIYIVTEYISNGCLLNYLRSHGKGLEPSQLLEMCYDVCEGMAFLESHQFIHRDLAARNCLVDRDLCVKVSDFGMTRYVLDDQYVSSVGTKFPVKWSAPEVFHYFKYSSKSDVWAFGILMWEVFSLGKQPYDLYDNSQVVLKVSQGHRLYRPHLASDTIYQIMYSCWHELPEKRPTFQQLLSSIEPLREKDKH

[12] = molecular target: Tyrosine-protein kinase CSK (Homo sapiens, UniProt P41240); assay: Inhibition of CSK (unknown origin)
[13] = Volume of distribution at steady state in Wistar Han rat at 2 mg/kg, iv; format: ADME, organism-based; conditions: in vivo, read-out: Vdss
[14] = Half life in Beagle dog at 1 mg/kg, iv; format: ADME, organism-based, Canis lupus familiaris; conditions: in vivo
[15] = molecular target: Proto-oncogene tyrosine-protein kinase Src (Homo sapiens, UniProt P12931); assay: Inhibition of SRC (unknown origin)
[16] = molecular target: Protein-tyrosine kinase 6 (Homo sapiens, UniProt Q13882); assay: Inhibition of PTK6 (unknown origin)
Protein-tyrosine kinase 6, sequence (Q13882 whole entry): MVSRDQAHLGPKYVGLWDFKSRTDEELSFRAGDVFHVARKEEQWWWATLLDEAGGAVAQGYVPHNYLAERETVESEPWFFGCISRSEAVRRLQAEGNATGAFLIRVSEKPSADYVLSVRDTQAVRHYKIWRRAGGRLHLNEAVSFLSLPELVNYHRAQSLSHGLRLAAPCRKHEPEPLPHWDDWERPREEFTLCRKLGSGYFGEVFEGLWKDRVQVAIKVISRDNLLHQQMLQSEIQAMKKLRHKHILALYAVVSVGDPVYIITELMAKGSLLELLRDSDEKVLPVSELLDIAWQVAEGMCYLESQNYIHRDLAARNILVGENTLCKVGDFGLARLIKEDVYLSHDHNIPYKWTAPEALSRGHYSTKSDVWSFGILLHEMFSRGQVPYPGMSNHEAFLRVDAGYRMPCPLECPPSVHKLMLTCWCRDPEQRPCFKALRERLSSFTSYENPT

[17] = Volume of distribution at steady state in Beagle dog at 1 mg/kg, iv; format: ADME, organism-based, Canis lupus familiaris; conditions: in vivo, read-out: Vdss
[18] = molecular target: Tyrosine-protein kinase Yes (Homo sapiens, UniProt P07947); assay: Inhibition of YES1 (unknown origin)
Tyrosine-protein kinase Yes, sequence (P07947 whole entry): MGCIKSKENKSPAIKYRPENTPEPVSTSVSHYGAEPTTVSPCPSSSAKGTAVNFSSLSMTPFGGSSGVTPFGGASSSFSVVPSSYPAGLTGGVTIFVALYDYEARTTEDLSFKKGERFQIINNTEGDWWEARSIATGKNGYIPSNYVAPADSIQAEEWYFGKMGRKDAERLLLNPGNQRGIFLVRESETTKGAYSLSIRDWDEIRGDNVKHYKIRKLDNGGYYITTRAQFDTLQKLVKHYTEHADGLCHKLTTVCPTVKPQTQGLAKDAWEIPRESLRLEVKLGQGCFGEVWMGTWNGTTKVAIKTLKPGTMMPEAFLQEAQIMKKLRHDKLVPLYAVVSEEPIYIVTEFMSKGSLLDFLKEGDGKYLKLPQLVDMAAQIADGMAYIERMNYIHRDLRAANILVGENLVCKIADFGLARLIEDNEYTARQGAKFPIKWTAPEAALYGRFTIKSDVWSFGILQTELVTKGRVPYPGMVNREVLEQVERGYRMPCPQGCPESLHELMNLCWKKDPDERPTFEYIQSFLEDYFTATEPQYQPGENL

[19] = molecular target: Tyrosine-protein kinase Srms (Homo sapiens, UniProt Q9H3Y6); assay: Inhibition of SRMS (unknown origin)
Tyrosine-protein kinase Srms, sequence (Q9H3Y6 whole entry): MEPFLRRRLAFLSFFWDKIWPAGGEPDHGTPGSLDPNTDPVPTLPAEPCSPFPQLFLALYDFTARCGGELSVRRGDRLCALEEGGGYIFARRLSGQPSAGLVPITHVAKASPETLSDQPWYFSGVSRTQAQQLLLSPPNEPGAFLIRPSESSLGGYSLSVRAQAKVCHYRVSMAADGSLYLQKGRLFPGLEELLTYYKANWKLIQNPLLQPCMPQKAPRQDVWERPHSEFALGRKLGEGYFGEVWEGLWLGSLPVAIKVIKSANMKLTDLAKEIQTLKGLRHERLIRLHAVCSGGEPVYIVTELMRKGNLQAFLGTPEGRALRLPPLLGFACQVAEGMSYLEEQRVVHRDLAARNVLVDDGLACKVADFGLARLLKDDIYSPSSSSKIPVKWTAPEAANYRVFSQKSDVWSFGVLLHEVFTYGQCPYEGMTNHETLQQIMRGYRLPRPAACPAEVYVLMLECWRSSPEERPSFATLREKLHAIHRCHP

[20] = molecular target: T4, Tyrosine-protein kinase Tec (Homo sapiens, UniProt P42680); assay: Inhibition of TEC (unknown origin)
T4 sequence (P42680 whole entry): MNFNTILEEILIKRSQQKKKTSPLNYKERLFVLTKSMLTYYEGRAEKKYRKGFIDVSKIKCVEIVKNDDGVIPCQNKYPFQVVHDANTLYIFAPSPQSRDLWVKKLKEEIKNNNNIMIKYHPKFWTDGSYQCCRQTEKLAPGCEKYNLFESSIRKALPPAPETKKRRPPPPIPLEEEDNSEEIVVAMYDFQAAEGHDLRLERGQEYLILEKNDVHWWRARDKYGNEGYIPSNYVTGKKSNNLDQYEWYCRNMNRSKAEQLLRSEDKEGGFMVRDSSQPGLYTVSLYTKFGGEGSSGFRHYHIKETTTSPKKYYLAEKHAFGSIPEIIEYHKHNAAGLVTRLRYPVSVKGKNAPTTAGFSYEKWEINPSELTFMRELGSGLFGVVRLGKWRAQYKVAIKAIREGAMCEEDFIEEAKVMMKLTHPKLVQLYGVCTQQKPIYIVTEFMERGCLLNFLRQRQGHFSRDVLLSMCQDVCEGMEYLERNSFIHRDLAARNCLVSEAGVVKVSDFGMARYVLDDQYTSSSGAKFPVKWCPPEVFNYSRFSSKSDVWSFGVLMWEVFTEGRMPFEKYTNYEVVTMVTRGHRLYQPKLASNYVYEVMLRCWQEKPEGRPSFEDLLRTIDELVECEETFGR

[21] = molecular target: Tyrosine-protein kinase Lyn (Homo sapiens, UniProt P07948); assay: Inhibition of LYNB (unknown origin)
[22] = molecular target: Tyrosine-protein kinase Lck (Homo sapiens, UniProt P06239); assay: Inhibition of LCK (unknown origin)
[23] = Oral bioavailability in Wistar Han rat at 5 mg/kg; format: ADME, organism-based; conditions: Wistar Han, in vivo
[24] = molecular target: Tyrosine-protein kinase FRK (Homo sapiens, UniProt P42685); assay: Inhibition of FRK (unknown origin)
Tyrosine-protein kinase FRK, sequence (P42685 whole entry): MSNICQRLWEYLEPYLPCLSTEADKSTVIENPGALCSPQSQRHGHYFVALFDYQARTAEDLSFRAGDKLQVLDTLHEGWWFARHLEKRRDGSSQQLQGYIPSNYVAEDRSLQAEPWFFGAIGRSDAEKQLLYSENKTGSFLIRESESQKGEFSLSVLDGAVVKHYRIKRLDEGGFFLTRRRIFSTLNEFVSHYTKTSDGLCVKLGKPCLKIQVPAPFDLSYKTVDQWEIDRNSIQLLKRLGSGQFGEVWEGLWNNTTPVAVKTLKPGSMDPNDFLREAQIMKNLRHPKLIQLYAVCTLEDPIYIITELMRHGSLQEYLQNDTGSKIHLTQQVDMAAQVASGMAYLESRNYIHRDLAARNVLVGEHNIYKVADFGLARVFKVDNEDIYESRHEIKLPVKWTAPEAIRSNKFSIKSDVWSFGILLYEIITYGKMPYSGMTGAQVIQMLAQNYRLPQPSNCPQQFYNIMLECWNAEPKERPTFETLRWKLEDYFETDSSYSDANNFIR

[25] = molecular target: Tyrosine-protein kinase Blk (Homo sapiens, UniProt P51451); assay: Inhibition of BLK (unknown origin)
Tyrosine-protein kinase Blk, sequence (P51451 whole entry): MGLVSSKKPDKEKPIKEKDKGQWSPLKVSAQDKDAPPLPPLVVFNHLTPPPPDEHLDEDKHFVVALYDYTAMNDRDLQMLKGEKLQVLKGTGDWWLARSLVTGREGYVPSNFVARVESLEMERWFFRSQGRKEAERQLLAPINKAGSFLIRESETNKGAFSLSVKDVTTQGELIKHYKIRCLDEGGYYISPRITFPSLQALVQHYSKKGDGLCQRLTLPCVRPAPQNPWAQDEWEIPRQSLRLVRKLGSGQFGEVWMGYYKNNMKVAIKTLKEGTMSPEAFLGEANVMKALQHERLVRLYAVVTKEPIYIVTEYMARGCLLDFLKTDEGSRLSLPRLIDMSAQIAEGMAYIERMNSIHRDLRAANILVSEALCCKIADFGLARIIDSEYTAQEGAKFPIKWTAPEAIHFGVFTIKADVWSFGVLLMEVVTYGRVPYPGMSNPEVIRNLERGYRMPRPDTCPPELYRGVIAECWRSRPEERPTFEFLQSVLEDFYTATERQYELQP

[26] = Cmax in Beagle dog at 2 mg/kg, po; format: ADME, organism-based, Canis lupus familiaris; set-up: route oral, dose 2 mg/kg; conditions: in vivo
[27] = AUC in Beagle dog at 1 mg/kg, iv; format: ADME, organism-based, Canis lupus familiaris; set-up: dose 1 mg/kg; conditions: in vivo
[28] = Half life in Wistar Han rat at 2 mg/kg, iv; format: ADME, organism-based; conditions: in vivo
[29] = molecular target: Tyrosine-protein kinase Fyn (Homo sapiens, UniProt P06241); assay: Inhibition of FYN (unknown origin)
[30] = Clearance in Wistar Han rat at 2 mg/kg, iv; format: ADME, organism-based; conditions: in vivo
[31] = molecular target: T1, Tyrosine-protein kinase BTK; assay: Inhibition of recombinant full length BTK (unknown origin) expressed in baculovirus infected Sf9 cells using Biotin-EQEDEPEGDYFEWLE-NH2 peptide as substrate incubated for 60 mins followed by further incubation with substrate and ATP for 120 mins by TR-FRET assay
[32] = molecular target: T1, Tyrosine-protein kinase BTK; assay: Inhibition of BTK in human whole blood assessed as reduction in cell surface CD69 expression preincubated for 1 hr followed by stimulation with anti-CD79b for 3 hrs by immunostaining analysis; format: tissue-based

Nc1nccn2c([C@@H]3CC[C@H]4CCC(=O)N4C3)nc(-c3ccc(C(=O)Nc4cc(C(F)(F)F)ccn4)cc3C(=O)O)c12
IC50 [1]: 1410 nM

COc1cc(C(=O)Nc2cc(C(F)(F)F)ccn2)ccc1-c1nc([C@@H]2CC[C@H]3CCC(=O)N3C2)n2ccnc(N)c12
AUC [2]: 1.1 µM·h
Activity (Rattus norvegicus): Dose-dependent effect
IC50 [3]: 102 nM
clearance [4]: 20 mL/min/kg
IC50 [5]: 160 nM
Tmax [6]: 2.1 h
Tmax [7]: 1.5 h
Cmax [8]: 50 nM
IC50 [9]: 64 nM
bioavailability [10]: 108%
IC50 [11]: 19 nM
IC50 [12]: 227 nM
Vd [13]: 4 L/kg
half-life [14]: 3.4 h
IC50 [15]: 71 nM
IC50 [16]: 84 nM
Vd [17]: 3 L/kg
IC50 [18]: 54 nM
IC50 [19]: 16 nM
IC50 [20]: 67 nM
IC50 [21]: 162 nM
IC50 [22]: 26 nM
bioavailability [23]: 9.5%
IC50 [24]: 154 nM
IC50 [25]: 101 nM
Cmax [26]: 1100 nM
AUC [27]: 1.6 µM·h
half-life [28]: 3 h
IC50 [29]: 1230 nM
clearance [30]: 53 mL/min/kg

Nc1nccn2c([C@@H]3CC[C@H]4CCC(=O)N4C3)nc(-c3ccc(C(=O)Nc4cc(C(F)(F)F)ccn4)cc3OC(F)(F)F)c12
IC50 [1]: 74 nM
IC50 [31]: 10 nM

Nc1nccn2c([C@@H]3CC[C@H]4CCCN4C3)nc(-c3ccc(C(=O)Nc4cc(C(F)(F)F)ccn4)cc3)c12
IC50 [1]: 39 nM
IC50 [32]: 204 nM

Nc1nccn2c([C@H]3CN4C(=O)OC[C@@H]4CO3)nc(-c3ccc(C(=O)Nc4cc(C(F)(F)F)ccn4)cc3)c12
IC50 [1]: 582 nM
IC50 [31]: 25 nM

C[C@@H]1OC(=O)N2C[C@H](c3nc(-c4ccc(C(=O)Nc5cc(C(F)(F)F)ccn5)cc4)c4c(N)nccn34)CC[C@@H]12
IC50 [1]: 4.9 nM
IC50 [32]: 86 nM
IC50 [31]: 0.13 nM

Nc1nccn2c([C@@H]3CC[C@H]4CCC(=O)N4C3)nc(-c3ccc(C(=O)Nc4cc(C(F)(F)F)ccn4)cc3OC3CC3)c12
AUC [2]: 1.4 µM·h
Tmax [6]: 3.5 h
Cmax [8]: 140 nM
Vd [13]: 4.2 L/kg
bioavailability [23]: 14%
half-life [28]: 2.3 h
clearance [30]: 42 mL/min/kg

CN1CC(=O)N2C[C@H](c3nc(-c4ccc(C(=O)Nc5cc(C(F)(F)F)ccn5)cc4F)c4c(N)nccn34)CC[C@H]2C1
IC50 [1]: 16 nM
IC50 [32]: 104 nM
IC50 [31]: 0.26 nM

N#Cc1cc(C(=O)Nc2cc(C(F)(F)F)ccn2)ccc1-c1nc([C@@H]2CC[C@H]3CCC(=O)N3C2)n2ccnc(N)c12
IC50 [1]: 267 nM

Nc1nccn2c([C@@H]3CC[C@H]4CCC(=O)N4C3)nc(-c3ccc(C(=O)Nc4cc(C(F)(F)F)ccn4)cc3O)c12
IC50 [1]: 11 nM

C[C@H]1CC[C@@H](c2nc(-c3ccc(C(=O)Nc4cc(C(F)(F)F)ccn4)cc3F)c3c(N)nccn23)CN1C(=O)C1CC1
AUC [2]: 3.1 µM·h
AUC [27]: 20 µM·h

Nc1nccn2c([C@@H]3CC[C@H]4CCC(=O)N4C3)nc(-c3ccc(C(=O)Nc4cc(C(F)(F)F)ccn4)cc3F)c12
IC50 [1]: 4 nM
IC50 [32]: 101 nM
